We go through one substance from PMC10204800 (Frontiers in Pharmacology, 2023).

The assay deals with T1, hDOR (human delta opioid receptor) (Homo sapiens, UniProt P41143).
T1 construct: gene OPRD1; stably transfected in CHO cells (CHO-hDOR); membrane homogenates
In kind it is binding. As to conditions: read-out: Ki values (nM) Mean (SEM).

T1 sequence (P41143 whole entry): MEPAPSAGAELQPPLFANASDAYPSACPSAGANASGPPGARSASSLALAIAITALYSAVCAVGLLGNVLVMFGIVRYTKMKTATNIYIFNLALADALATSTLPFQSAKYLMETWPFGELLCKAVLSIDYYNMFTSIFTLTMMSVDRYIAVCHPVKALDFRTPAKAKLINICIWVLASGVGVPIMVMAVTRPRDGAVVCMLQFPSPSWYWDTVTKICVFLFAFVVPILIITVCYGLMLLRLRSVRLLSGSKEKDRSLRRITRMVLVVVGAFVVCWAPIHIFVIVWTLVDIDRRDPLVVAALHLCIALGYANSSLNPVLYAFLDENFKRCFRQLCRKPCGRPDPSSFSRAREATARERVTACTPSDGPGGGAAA

What is called Ki is a dissociation constant, usually derived from enzyme kinetics or from competition with a known ligand. Regarding “(4R,4aS,6R,7R,7aR,12bS)-3-(cyclopropylmethyl-d 2 )-6-(2-hydroxy-3,3-dimethylbutan-2-yl)-7-methoxy-1,2,3,4,5,6,7,7a-octahy dro-4a,7-ethano-4,12-methanobenzofuro[3,2-e]isoquinolin-9-ol [BUP-D2]”, the Ki was found to be 0.424 nM.
